Experimental data as given in patent publication US11986507B1, “Micronutrient composition to improve men's health” (priority 2023, dated 2024).

Legend:
Format in all cases: cell-based
[1] = tested on: IL6 release by Human Aortic Endothelial Cells (HAEC); assay: IL6 secretion by human aortic endothelial cells (HAEC) in the presence of LPS (ELISA); details: 24 h, 20 ng/ml LPS, with 200 mcM Ascorbate or w/o Ascorbate (FIG. 13)
Experimental: Cytokine assay in Human Aortic endothelial cells (AoEC): Human Aortic endothelial cells (AoEC, Lonza) were cultured in EBG-2 cell culture medium (Lonza) and used in experiments at 5-8 passages. AoEC were seeded in 96-well plates covered with fibronectin or collagen (COSTAR) in 100 mcl/well growth medium. After reaching confluency cells were supplemented with tested components in 100 mcl growth medium for 48 hour incubation. Levels of cytokines were assayed with corresponding ELISA assays (R&D Systems).
The test was carried out by incubating HAEC cells for 24 h in the presence of 20 ng/ml LPS (all samples) and 200 mcM Ascorbate or w/o Ascorbate.

[2] = tested on: Human aortic smooth muscle cells (AoSMC); assay: Collagen gel contraction by AoSMC; details: individual components (FIG. 6)
Experimental: Collagen gel contraction by AoSMC: Gel Contraction Assay: Human aortic smooth muscle cells (AoSMS) were obtained from Lonza Corporation and cultured in DMEM cell culture medium (ATCC) supplemented with 5% fetal bovine serum (ATCC). For experiments cells were suspended in DMEM medium at 500,000 per mL by trypsinization and mixed with equal volume of 2 mg/ml bovine skin collagen (Sigma) solution in DMEM. Resulting cell suspension was distributed at 300 mcl per well of plastic 24 well plate pretreated with 10 mg/ml bovine serum albumin in phosphate buffered saline. Collagen gels, formed in the wells after one hour incubation at 37° C., were supplemented with 500 mcl DMEM containing indicated amounts of tested compounds. After 24 hours incubation at 37° C. pictures of the wells were taken with digital photo camera and gel surface area was measured in pixels using ImageJ scientific software. Gel contraction was expressed as percentage of unsupplemented control using the following formula: (No Cell Control Gel Area−Tested Sample Gel Area)/(No Cell Control Gel Area−Not Supplemented Control Gel Area)*100%. All experiments were done in triplicates and results are expressed as mean values+/−SD.

[3] = tested on: Mouse Leyden TM3 cells; assay: Testosterone production assay in TM3 cells under pro-inflammatory conditions (TNF alpha); details: 10 ng/ml TNFa; for effect on testosterone secretion (in words): 48 h, in the presence and absence of DHEA (FIG. 3)
Experimental: (§1) Testosterone production assay: Mouse Leyden TM3 cells (ATCC) were cultured at 37° C., 5% CO2, in growth medium: 1:1 mixture of Ham's F12 medium and Dulbecco's modified Eagle's medium with 2.5 mM L-Glutamine, 0.5 mM Sodium Pyruvate, 1.2 g/L Sodium Bicarbonate and 15 mM HEPES, 92.5%; horse serum, 5%; fetal bovine serum, 2.5%. TM3 cells were seeded in 96-well plates covered with fibronectin or collagen (COSTAR) in […] growth medium. After reaching confluency cells were supplied with tested components in 100 mcl growth medium for 48 hour incubation. In some tests we also used additions of TNF alpha at 1 ng/ml and 10 ng/ml as indicated in appropriate figure legends. Testosterone content in 50 mcl conditioned cell culture medium samples was assayed with testosterone ELISA assay (DRG #EIA-1559) as described in the manufacturer's protocol.
It is known that chronic inflammation, such as in the presence of TNF alpha, can suppress testosterone production, which has physiological implications as it is related to an increased risk of infertility. Incubation was for 48 h with 10 ng/ml TNFa (all samples) and 1 mcg/ml DHEA or w/o DHEA. Data are presented as % of no additions Control. We evaluated the effects of micronutrients on testosterone production in Leydig cells exposed to a proinflammatory factor—TNF alpha.

[4] = tested on: Mouse Leyden TM3 cells; assay: Testosterone production assay in TM3 cells, normal conditions (testosterone ELISA)
Experimental: as §1
The concentration of ingredients were Rosemary extract 20 mcg/ml, Fenugreek-20 mcg/ml, Cassia nomane—20 mcg/ml, 3′3-di indolylmethylene—5 mcg/ml, Zinc—2 mcg/ml, Phosphatidylserine—20 mcg/ml, Vitamin D—5 mcg/ml, Niacin—20 mcg/ml, Theanine—2 mcg/ml, Aspartic acid—2 mcg/ml, Arginine—2 mcg/ml and DHEA—2 mcg/ml.

| Compound | effect of individual compounds on IL-6 secretion (in words) [1] | effect on testosterone secretion (in words) [3] | testosterone secretion, % of Control ([4]; 11 mcg/ml (FIG. 2)) | further results |
| --- | --- | --- | --- | --- |
| Phosphatidylserine | significant inhibitory effect | – | – | – |
| CC(=O)[O-].CC(=O)[O-].[Zn+2] [zinc, Zinc Acetate Dihydrate] | – | decreasing | – | SMC relaxation by individual compounds [2]: 69% |
| Oc1ccc(C=Cc2cc(O)cc(O)c2)cc1 [resveratrol] | – | decreasing | – | – |
| C[C@]12CC[C@H](O)CC1=CC[C@@H]1[C@@H]2CC[C@]2(C)C(=O)CC[C@@H]12 [DHEA, Dehydroepiandrosterone] | – | – | 1402 % of Control | increase of testosterone secretion compared to control ([4]; 11 mcg/ml (FIG. 2)): 1402%; increase of testosterone secretion compared to control ([4]; 33 mcg/ml (FIG. 2)): 2361%; increase of testosterone secretion compared to control ([4]; applied individually, DHEA 2 mcg/ml (FIG. 1)): 161%; decrease of testosterone secretion compared to normal Control ([3]; 1 mcg/ml DHEA, 48 h (FIG. 3)): about 48% |
| C=C1CC[C@H](O)C/C1=C/C=C1\CCC[C@]2(C)[C@@H]([C@H](C)CCCC(C)C)CC[C@@H]12 [Vitamin D, Cholecalciferol] | significant inhibitory effect | – | 115 % of Control | – |
